Relative growth data for one compound are collected here from US20080132412A1, “7-Amino-6-Heteroaryl-1,2,4-Triazolo[1,5-A]Pyrimidines and Their Use for Controlling Harmful Fungi” (BASF Aktiengesellschaft, priority 2004, published 2008).

This experiment concerns Septoria tritici. As to the kind of experiment: Speckled leaf blotch pathogen Septoria tritici in the microtiter test. Type of experiment: cell-based. The note with it: 125 ppm, microtiter plate, absorption at 405 nm on day 7 after inoculation. The protocol: The stock solution is pipetted into a microtiter plate (MTP) and diluted to the stated active compound concentration using an aqueous, malt-based nutrient medium for fungi. An aqueous spore suspension of Septoria tritici was then added. The plates were placed in a water vapor-saturated chamber at temperatures of 18° C. Using an absorption photometer, the MTPs were measured at 405 nm on day 7 after the inoculation. The parameters measured were compared to the growth of the active compound-free control variant and the fungus- and active compound-free blank value to determine the relative growth in % of the pathogens in the individual active compounds. The relative growth at 125 ppm of compound 1 was 0%.

Turning to `Cc1nc2ncnn2c(N2CCC(C)CC2)c1-c1ncncc1Cl` [compound 1, 6-(5-chloropyrimidin-4-yl)-5-methyl-7-(4-methylpiperidin-1-yl)-[1,2,4]triazolo[1,5-a]pyrimidine], the relative growth was 0%.
